Measurements from patent US11382328B2, “Rapid drug discovery methods for pathogen inactivation” (priority 2019, dated 2022).

Tested on: E. coli strain W3110
Assay: Synergy assays: Biolog chemical sensitivity panels with Group IB metal, coefficient of drug interaction (CDI) from relative growth
Type: cell-based
Details: for CDI (coefficient of drug interaction) / CDI (coefficient of drug interaction), silver + biocide: E. coli; for CDI (coefficient of drug interaction), gold + biocide: Gold (μM); for CDI (coefficient of drug interaction), copper mixed with biocide: Copper (mM) section
[1] = Copper (mM), 1st of 3 copper concentrations (head line not shown), biocide concentration 1 of 4
[2] = Copper (mM), 1st of 3 copper concentrations (head line not shown), biocide concentration 2 of 4
[3] = Copper (mM), 1st of 3 copper concentrations (head line not shown), biocide concentration 3 of 4
[4] = Copper (mM), 1st of 3 copper concentrations (head line not shown), biocide concentration 4 of 4
[5] = Copper (mM), 2nd of 3 copper concentrations (head line not shown), biocide concentration 1 of 4
[6] = Copper (mM), 2nd of 3 copper concentrations (head line not shown), biocide concentration 2 of 4
[7] = Copper (mM), 2nd of 3 copper concentrations (head line not shown), biocide concentration 3 of 4
[8] = Copper (mM), 2nd of 3 copper concentrations (head line not shown), biocide concentration 4 of 4
[9] = Copper (mM), 3rd of 3 copper concentrations (head line not shown), biocide concentration 1 of 4
[10] = Copper (mM), 3rd of 3 copper concentrations (head line not shown), biocide concentration 2 of 4
[11] = Copper (mM), 3rd of 3 copper concentrations (head line not shown), biocide concentration 3 of 4
[12] = Copper (mM), 3rd of 3 copper concentrations (head line not shown), biocide concentration 4 of 4
[13] = first of 3 gold concentrations, biocide concentration 2 of 4
[14] = first of 3 gold concentrations, biocide concentration 3 of 4
[15] = first of 3 gold concentrations, biocide concentration 4 of 4
[16] = second of 3 gold concentrations, biocide concentration 1 of 4
[17] = second of 3 gold concentrations, biocide concentration 2 of 4
[18] = second of 3 gold concentrations, biocide concentration 3 of 4
[19] = second of 3 gold concentrations, biocide concentration 4 of 4
[20] = third of 3 gold concentrations, biocide concentration 1 of 4
[21] = third of 3 gold concentrations, biocide concentration 2 of 4
[22] = third of 3 gold concentrations, biocide concentration 3 of 4
[23] = third of 3 gold concentrations, biocide concentration 4 of 4
[24] = Silver 0.5 μM, biocide concentration 1 of 4
[25] = Silver 0.5 μM, biocide concentration 2 of 4
[26] = Silver 0.5 μM, biocide concentration 3 of 4
[27] = Silver 0.5 μM, biocide concentration 4 of 4
[28] = Silver 1.0 μM, biocide concentration 1 of 4
[29] = Silver 1.0 μM, biocide concentration 2 of 4
[30] = Silver 1.0 μM, biocide concentration 3 of 4
[31] = Silver 1.0 μM, biocide concentration 4 of 4
[32] = Silver 5.0 μM, biocide concentration 1 of 4
[33] = Silver 5.0 μM, biocide concentration 2 of 4
[34] = Silver 5.0 μM, biocide concentration 4 of 4
[35] = Silver 5.0 μM, biocide concentration 3 of 4

SMILES: O=C(O)/C=C/c1ccccc1 [Cimamic acid]
- CDI (coefficient of drug interaction) [1]: 0.85
- CDI (coefficient of drug interaction) [2]: 0.74
- CDI (coefficient of drug interaction) [3]: 0.87
- CDI (coefficient of drug interaction) [4]: Tox
- CDI (coefficient of drug interaction) [5]: 0.70
- CDI (coefficient of drug interaction) [6]: 0.79
- CDI (coefficient of drug interaction) [7]: 1.11
- CDI (coefficient of drug interaction) [8]: Tox
- CDI (coefficient of drug interaction) [9]: 0.53
- CDI (coefficient of drug interaction) [10]: 0.54
- CDI (coefficient of drug interaction) [11]: 1.11
- CDI (coefficient of drug interaction) [12]: Tox
- CDI (coefficient of drug interaction), gold + biocide [13]: 1.09
- CDI (coefficient of drug interaction), gold + biocide [14]: 1.19
- CDI (coefficient of drug interaction), gold + biocide [15]: Tox
- CDI (coefficient of drug interaction), gold + biocide [16]: 0.99
- CDI (coefficient of drug interaction), gold + biocide [17]: 1.11
- CDI (coefficient of drug interaction), gold + biocide [18]: 0.95
- CDI (coefficient of drug interaction), gold + biocide [19]: Tox
- CDI (coefficient of drug interaction), gold + biocide [20]: 0.98
- CDI (coefficient of drug interaction), gold + biocide [21]: 0.85
- CDI (coefficient of drug interaction), gold + biocide [22]: 0.96
- CDI (coefficient of drug interaction), gold + biocide [23]: Tox
- CDI [24]: 0.90
- CDI [25]: 1.06
- CDI [26]: 0.73
- CDI [27]: Tox
- CDI [28]: 0.88
- CDI [29]: 0.93
- CDI [30]: 0.99
- CDI [31]: Tox
- CDI [32]: 0.88
- CDI [33]: 0.92
- CDI [34]: Tox

SMILES: N.N.N.N.N.N.[Cl-].[Cl-].[Cl-].[Co+3] [hexammine cobalt (III) chloride]
- CDI (coefficient of drug interaction), copper mixed with biocide (1st of 3 copper concentrations (value not shown), 1st of four biocide concentrations): 1.06
- CDI (coefficient of drug interaction), copper mixed with biocide (1st of 3 copper concentrations (value not shown), 3rd of four biocide concentrations): 1.19
- CDI (coefficient of drug interaction), copper mixed with biocide (1st of 3 copper concentrations (value not shown), 4th of four biocide concentrations): 1.51
- CDI (coefficient of drug interaction), copper mixed with biocide (2nd of 3 copper concentrations (value not shown), 1st of four biocide concentrations): 0.93
- CDI (coefficient of drug interaction), copper mixed with biocide (2nd of 3 copper concentrations (value not shown), 2nd of four biocide concentrations): 1.05
- CDI (coefficient of drug interaction), copper mixed with biocide (2nd of 3 copper concentrations (value not shown), 3rd of four biocide concentrations): 1.05
- CDI (coefficient of drug interaction), copper mixed with biocide (2nd of 3 copper concentrations (value not shown), 4th of four biocide concentrations): 1.59
- CDI (coefficient of drug interaction), copper mixed with biocide (3rd of 3 copper concentrations (value not shown), 1st of four biocide concentrations): 0.94
- CDI (coefficient of drug interaction), copper mixed with biocide (3rd of 3 copper concentrations (value not shown), 2nd of four biocide concentrations): 0.90
- CDI (coefficient of drug interaction), copper mixed with biocide (3rd of 3 copper concentrations (value not shown), 3rd of four biocide concentrations): 0.73
- CDI (coefficient of drug interaction), copper mixed with biocide (3rd of 3 copper concentrations (value not shown), 4th of four biocide concentrations): 0.87
- CDI (coefficient of drug interaction) (Gold 5 μM, biocide concentration 1 of 4): 1.09
- CDI (coefficient of drug interaction) (Gold 5 μM, biocide concentration 4 of 4): 1.10
- CDI (coefficient of drug interaction) (Gold 25 μM, biocide concentration 1 of 4): 1.09
- CDI (coefficient of drug interaction) (Gold 25 μM, biocide concentration 3 of 4): 1.08
- CDI (coefficient of drug interaction) (Gold 25 μM, biocide concentration 4 of 4): 1.25
- CDI (coefficient of drug interaction), silver + biocide (Silver 0.5 μM, 1st of four biocide concentrations): 0.98
- CDI (coefficient of drug interaction), silver + biocide (Silver 0.5 μM, 2nd of four biocide concentrations): 1.05
- CDI (coefficient of drug interaction), silver + biocide (Silver 0.5 μM, 3rd of four biocide concentrations): 0.97
- CDI (coefficient of drug interaction), silver + biocide (Silver 0.5 μM, 4th of four biocide concentrations): 0.82
- CDI (coefficient of drug interaction), silver + biocide (Silver 1.0 μM, 1st of four biocide concentrations): 0.98
- CDI (coefficient of drug interaction), silver + biocide (Silver 1.0 μM, 2nd of four biocide concentrations): 1.03
- CDI (coefficient of drug interaction), silver + biocide (Silver 1.0 μM, 3rd of four biocide concentrations): 1.04
- CDI (coefficient of drug interaction), silver + biocide (Silver 1.0 μM, 4th of four biocide concentrations): 0.39
- CDI (coefficient of drug interaction), silver + biocide (Silver 5.0 μM, 1st of four biocide concentrations): 1.26
- CDI (coefficient of drug interaction), silver + biocide (Silver 5.0 μM, 2nd of four biocide concentrations): 1.43
- CDI (coefficient of drug interaction), silver + biocide (Silver 5.0 μM, 3rd of four biocide concentrations): 1.00
- CDI (coefficient of drug interaction) ([…], biocide concentration 3 of 4): 1.25
- CDI (coefficient of drug interaction) ([…], biocide concentration 4 of 4): 1.62

SMILES: NCC(=O)NO [glycine hydroxamate]
- CDI (coefficient of drug interaction) [1]: 1.36
- CDI (coefficient of drug interaction) [2]: Tox
- CDI (coefficient of drug interaction) [3]: Tox
- CDI (coefficient of drug interaction) [4]: Tox
- CDI (coefficient of drug interaction) [5]: 1.06
- CDI (coefficient of drug interaction) [6]: 0.47
- CDI (coefficient of drug interaction) [7]: Tox
- CDI (coefficient of drug interaction) [8]: Tox
- CDI (coefficient of drug interaction) [9]: 1.73
- CDI (coefficient of drug interaction) [10]: Tox
- CDI (coefficient of drug interaction) [11]: Tox
- CDI (coefficient of drug interaction) [12]: Tox
- CDI (coefficient of drug interaction), gold + biocide (first of 3 gold concentrations, biocide concentration 1 of 4): 1.08
- CDI (coefficient of drug interaction), gold + biocide [13]: 0.95
- CDI (coefficient of drug interaction), gold + biocide [14]: 1.13
- CDI (coefficient of drug interaction), gold + biocide [15]: 1.01
- CDI (coefficient of drug interaction), gold + biocide [16]: 1.07
- CDI (coefficient of drug interaction), gold + biocide [17]: 1.11
- CDI (coefficient of drug interaction), gold + biocide [18]: 1.19
- CDI (coefficient of drug interaction), gold + biocide [20]: 1.00
- CDI (coefficient of drug interaction), gold + biocide [21]: 1.07
- CDI (coefficient of drug interaction), gold + biocide [22]: 1.39
- CDI (coefficient of drug interaction), gold + biocide [23]: 1.22
- CDI [24]: 0.74
- CDI [25]: 0.72
- CDI [26]: 0.79
- CDI [27]: 0.76
- CDI [28]: 0.95
- CDI [29]: 0.99
- CDI [30]: 0.95
- CDI [31]: 1.07
- CDI [32]: 1.00
- CDI [33]: 0.95
- CDI [35]: 1.09
- CDI [34]: 0.88

SMILES: c1ccc(-c2nn(-c3ccccc3)[n+](-c3cccc4ccccc34)n2)cc1 [Tetrazolium violet]
- CDI (coefficient of drug interaction) [3]: Tox
- CDI (coefficient of drug interaction) [4]: Tox
- CDI (coefficient of drug interaction) [7]: Tox
- CDI (coefficient of drug interaction) [8]: Tox
- CDI (coefficient of drug interaction) [11]: Tox
- CDI (coefficient of drug interaction) [12]: Tox
- CDI (coefficient of drug interaction), gold + biocide [14]: Tox
- CDI (coefficient of drug interaction), gold + biocide [15]: Tox
- CDI (coefficient of drug interaction), gold + biocide [18]: Tox
- CDI (coefficient of drug interaction), gold + biocide [19]: Tox
- CDI (coefficient of drug interaction), gold + biocide [22]: Tox
- CDI (coefficient of drug interaction), gold + biocide [23]: Tox
- CDI [26]: Tox
- CDI [27]: Tox
- CDI [30]: Tox
- CDI [31]: Tox
- CDI [35]: Tox
- CDI [34]: Tox
